Test system: hypertriglyceridemic patients with cardiovascular disease or at high risk for cardiovascular disease
Test: REDUCE-IT: treatment-emergent adverse events and serious adverse events (safety population)
[1] = patients taking ezetimibe at baseline

Method: Specification of Variables and Procedures: Safety assessments included adverse events, clinical laboratory measurements (chemistry, hematology), 12-lead ECGs, vital signs (systolic and diastolic blood pressure, heart rate, respiratory rate, and body temperature), weight, waist circumference, and physical examinations as per Study Procedures in Table 1. […] All laboratory test results were evaluated by the investigator as to their clinical significance. Any observations at physical examinations or laboratory values considered by the investigator to be clinically significant were considered an adverse event.
An adverse event can therefore be any unfavorable and/or unintended sign (including an abnormal laboratory finding), symptom, or disease temporally associated with the use of an investigational medication product, whether or not related to the investigational medication product. All adverse events, including observed or volunteered problems, complaints, or symptoms, were recorded on the appropriate CRF. Each adverse event was evaluated for duration, intensity, and causal relationship with the study medication or other factors.
Adverse events, which included clinical laboratory test variables, were monitored from the time of informed consent until study participation was complete. Patients were instructed to report any adverse event that they experienced to the investigator. Beginning with Visit 2, investigators assessed for adverse events at each visit and recorded the event on the appropriate adverse event CRF.
Causality Assessment: The relationship of an adverse event to the administration of the study drug was assessed according to the following definitions: • No (unrelated, not related, no relation)—The time course between the administration of study drug and the occurrence or worsening of the adverse event rules out a causal relationship and another cause (concomitant drugs, therapies, complications, etc.) is suspected. • Yes (related, probably related, possibly related)—The time course between the administration of study drug and the occurrence or worsening of the adverse event is consistent with a causal relationship and no other cause (concomitant drugs, therapies, complications, etc.) can be identified.
Serious Adverse Events: A serious adverse event (SAE) is defined as an adverse event that meets any of the following criteria: • Results in death; • Is life-threatening—The term “life-threatening” in the definition of “serious” refers to an event in which the patient was at risk of death at the time of the event. […] Important medical events that may not result in death, be life threatening, or require hospitalization were considered an SAE when, based upon appropriate medical judgment, they may have jeopardized the patient and may have required medical or surgical intervention to prevent one of the outcomes listed above.
Analysis of Safety: All analyses of safety were conducted on the safety population, which was defined as all randomized patients. The safety assessment was based on the frequency of adverse events, physical exams, vital signs and safety laboratory tests. AEs with new onset during the study between the initiation of study drug and 30 days after the last dose of study drug for each patient was considered treatment-emergent (TEAEs). This included any AE with onset prior to initiation of study drug and increased severity after the treatment initiation.
This included overall incidence rates (regardless of severity and relationship to study drug), and incidence rates for moderate or severe adverse events. A summary of SAEs and adverse events leading to early discontinuation (for ≥30 days) were presented through data listings. Patients who restarted study drug were included in the summary of AEs leading to discontinuation.

Structure (SMILES): CC/C=C\C/C=C\C/C=C\C/C=C\C/C=C\CCCC(=O)OCC [AMR101, eicosapentaenoic acid ethyl ester]
- Study drug-related TEAE leading to study drug withdrawal - Gastroesophageal reflux disease, % patients (Safety population, N = 4089): (0.1) %
- Study drug-related TEAE leading to study drug withdrawal - Gastroesophageal reflux disease, n patients (Safety population, N = 4089): 5
- Study drug-related TEAE leading to study drug withdrawal - Gastrointestinal disorders (SOC), % patients (Safety population, N = 4089): (2.4) %
- Study drug-related TEAE leading to study drug withdrawal - Gastrointestinal disorders (SOC), n patients (Safety population, N = 4089): 97
- Study drug-related TEAE leading to study drug withdrawal - Hypersensitivity, % patients (Safety population, N = 4089): (0.1) %
- Study drug-related TEAE leading to study drug withdrawal - Hypersensitivity, n patients (Safety population, N = 4089): 3
- Study drug-related TEAE leading to study drug withdrawal - Immune system disorders (SOC), % patients (Safety population, N = 4089): (0.1) %
- Study drug-related TEAE leading to study drug withdrawal - Immune system disorders (SOC), n patients (Safety population, N = 4089): 4
- Study drug-related TEAE leading to study drug withdrawal - Muscle spasms, % patients (Safety population, N = 4089): (0.0) %
- Study drug-related TEAE leading to study drug withdrawal - Muscle spasms, n patients (Safety population, N = 4089): 0
- Study drug-related TEAE leading to study drug withdrawal - Musculoskeletal and connective tissue disorders (SOC), % patients (Safety population, N = 4089): (0.3) %
- Study drug-related TEAE leading to study drug withdrawal - Musculoskeletal and connective tissue disorders (SOC), n patients (Safety population, N = 4089): 13
- Study drug-related TEAE leading to study drug withdrawal - Nausea, % patients (Safety population, N = 4089): (0.4) %
- Study drug-related TEAE leading to study drug withdrawal - Nausea, n patients (Safety population, N = 4089): 16
- Study drug-related TEAE leading to study drug withdrawal - Pruritus generalized, % patients (Safety population, N = 4089): (0.1) %
- Study drug-related TEAE leading to study drug withdrawal - Pruritus generalized, n patients (Safety population, N = 4089): 3
- Study drug-related TEAE leading to study drug withdrawal - Pruritus, % patients (Safety population, N = 4089): (0.0) %
- Study drug-related TEAE leading to study drug withdrawal - Pruritus, n patients (Safety population, N = 4089): 1
- Study drug-related TEAE leading to study drug withdrawal - Rash, % patients (Safety population, N = 4089): (0.1) %
- Study drug-related TEAE leading to study drug withdrawal - Rash, n patients (Safety population, N = 4089): 3
- Study drug-related TEAE leading to study drug withdrawal - Skin and subcutaneous disorders (SOC), % patients (Safety population, N = 4089): (0.4) %
- Study drug-related TEAE leading to study drug withdrawal - Skin and subcutaneous disorders (SOC), n patients (Safety population, N = 4089): 16
- Study drug-related TEAE leading to study drug withdrawal - Skin odor abnormal, % patients (Safety population, N = 4089): (0.1) %
- Study drug-related TEAE leading to study drug withdrawal - Skin odor abnormal, n patients (Safety population, N = 4089): 3
- Study drug-related TEAE leading to study drug withdrawal - Vomiting, % patients (Safety population, N = 4089): (0.1) %
- Study drug-related TEAE leading to study drug withdrawal - Vomiting, n patients (Safety population, N = 4089): 3
- Study drug-related TEAE: Arthralgia, % (Safety population, N = 4089): (0.6) %
- Study drug-related TEAE: Diarrhea, % (Safety population, N = 4089): (2.7) %
- Study drug-related TEAE: Dyspepsia, % (Safety population, N = 4089): (0.4) %
- Study drug-related TEAE: Eructation, % (Safety population, N = 4089): (0.9) %
- Study drug-related TEAE: Flatulence, % (Safety population, N = 4089): (0.8) %
- Study drug-related TEAE: Gastrointestinal disorders, % (Safety population, N = 4089): (7.4) %
- Study drug-related TEAE: Musculoskeletal and connective tissue disorders, % (Safety population, N = 4089): (1.4) %
- Study drug-related TEAE: Nausea, % (Safety population, N = 4089): (0.8) %
- Subjects with at Least One TEAE (Safety population, N = 4089): 3343 (81.8%) n (%)
- TEAE Leading to Withdrawal of Study Drug, % (Safety population, N = 4089): (7.9) %
- TEAE: Anemia, % (Safety population, N = 4089): (4.7) %
- TEAE: Angina pectoris, % (Safety population, N = 4089): (4.9) %
- TEAE: Arthralgia, % (Safety population, N = 4089): (7.7) %
- TEAE: Atrial fibrillation, % (Safety population, N = 4089): (5.3) %
- TEAE: Back pain, % (Safety population, N = 4089): (8.2) %
- TEAE: Blood and lymphatic system disorders, % (Safety population, N = 4089): (7.9) %
- TEAE: Bronchitis, % (Safety population, N = 4089): (7.5) %
- TEAE: Cardiac disorders, % (Safety population, N = 4089): (22.3) %
- TEAE: Cataract, % (Safety population, N = 4089): (5.7) %
- TEAE: Chest pain, % (Safety population, N = 4089): (6.7) %
- TEAE: Constipation, % (Safety population, N = 4089): (5.4) %
- TEAE: Cough, % (Safety population, N = 4089): (5.9) %
- TEAE: Diabetes mellitus, % (Safety population, N = 4089): (4.1) %
- TEAE: Diarrhea, % (Safety population, N = 4089): (9.0) %
- TEAE: Dizziness, % (Safety population, N = 4089): (5.7) %
- TEAE: Dyspnea, % (Safety population, N = 4089): (6.2) %
- TEAE: Edema peripheral, % (Safety population, N = 4089): (6.5) %
- TEAE: Eye disorders, % (Safety population, N = 4089): (11.7) %
- TEAE: Fall, % (Safety population, N = 4089): (3.6) %
- TEAE: Fatigue, % (Safety population, N = 4089): (5.6) %
- TEAE: Gastroesophageal reflux disease, % (Safety population, N = 4089): (3.0) %
- TEAE: Gastrointestinal disorders, % (Safety population, N = 4089): (33.0) %
- TEAE: General disorders and administration site conditions, % (Safety population, N = 4089): (25.2) %
- TEAE: Gout, % (Safety population, N = 4089): (4.2) %
- TEAE: Headache, % (Safety population, N = 4089): (4.2) %
- TEAE: Hypertension, % (Safety population, N = 4089): (7.8) %
- TEAE: Infections and infestations, % (Safety population, N = 4089): (44.6) %
- TEAE: Influenza, % (Safety population, N = 4089): (6.4) %
- TEAE: Injury, poisoning, and procedural complications, % (Safety population, N = 4089): (18.3) %
- TEAE: Insomnia, % (Safety population, N = 4089): (3.0) %
- TEAE: Metabolism and nutrition disorders, % (Safety population, N = 4089): (23.3) %
- TEAE: Muscle spasms, % (Safety population, N = 4089): (2.5) %
- TEAE: Musculoskeletal and connective tissue disorders, % (Safety population, N = 4089): (35.9) %
- TEAE: Musculoskeletal pain, % (Safety population, N = 4089): (4.3) %
- TEAE: Myalgia, % (Safety population, N = 4089): (3.3) %
- TEAE: Nasopharyngitis, % (Safety population, N = 4089): (7.7) %
- TEAE: Nausea, % (Safety population, N = 4089): (4.6) %
- TEAE: Nervous system disorders, % (Safety population, N = 4089): (24.6) %
- TEAE: Non-cardiac chest pain, % (Safety population, N = 4089): (3.9) %
- TEAE: Osteoarthritis, % (Safety population, N = 4089): (5.9) %
- TEAE: Pain in extremity, % (Safety population, N = 4089): (5.7) %
- TEAE: Pneumonia, % (Safety population, N = 4089): (6.4) %
- TEAE: Psychiatric disorders, % (Safety population, N = 4089): (9.1) %
- TEAE: Respiratory, thoracic, and mediastinal disorders, % (Safety population, N = 4089): (24.2) %
- TEAE: Sinusitis, % (Safety population, N = 4089): (4.1) %
- TEAE: Type 2 diabetes mellitus, % (Safety population, N = 4089): (3.6) %
- TEAE: Vascular disorders, % (Safety population, N = 4089): (17.3) %
- Ventricular extrasystoles TEAE, Event Rate (Safety population, N = 4089): 0.7%
- Ventricular extrasystoles TEAE, Number of Subjects (Safety population, N = 4089): 27
- Ventricular fibrillation TEAE, Event Rate (Safety population, N = 4089): 0.0%
- Ventricular fibrillation TEAE, Number of Subjects (Safety population, N = 4089): 0
- Ventricular tachycardia TEAE, Event Rate (Safety population, N = 4089): 0.3%
- Ventricular tachycardia TEAE, Number of Subjects (Safety population, N = 4089): 12
- TEAE class GI disorders, patients [1]: 37.4%
- TEAE class general disorders and administration site conditions, patients [1]: 26.3%
- TEAE class musculoskeletal and connective tissue disorders, patients [1]: 41.2%
- TEAE class nervous system disorders, patients [1]: 23.7%
- TEAE class respiratory, thoracic, and mediastinal disorders, patients [1]: 27.5%
